Measured values as given in patent publication US20100267743A1, “3-(PHENOXYPYRROLIDIN-3-YL-METHYL)HETEROARYL, 3-(PHENYLPYRROLIDIN-3-YLMETHOXY)HETEROARYL, AND 3-(HETEROARYLPYRROLIDIN-3-YLMETHOXY)HETEROARYL COMPOUNDS” (priority 2009, published 2010).

Experiments:
NET = NET (Homo sapiens, UniProt P23975); test: hNET radioligand binding assay (3H-nisoxetine); design: expressed in transfected cells; host or cells: HEK-293; conditions: hNET membranes (HEK-293), 1.0 nM 3H-nisoxetine; for Ki: read-out: NET pKi (converted)
Experimental: (§1) Membrane radioligand binding assays were used to measure inhibition of labeled ligand (^3H-citalopram or ^3H-nisoxetine or ^3H-WIN35428) binding to membranes prepared from cells expressing the respective human recombinant transporter (hSERT or hNET or hDAT) in order to determine the pKi values of test compounds at the transporters.
(§2) Recombinant human embryonic kidney (HEK-293) derived cell lines stably transfected with hSERT or hNET, respectively, were grown in DMEM medium supplemented with 10% dialyzed FBS (for hSERT) or FBS (for hNET), 100 μg/ml penicillin, 100 μg/ml streptomycin, 2 mM L-glutamine and 250 μg/ml of the aminoglycoside antibiotic G418, in a 5% CO2 humidified incubator at 37° C. When cultures reached 80% confluence, the cells were washed thoroughly in PBS (without […] and Mg^2+) and lifted with 5 mM EDTA in PBS. Cells were pelleted by centrifugation, resuspended in lysis buffer (10 mM Tris-HCl, pH7.5 containing 1 mM EDTA), homogenized, pelleted by centrifugation, then resuspended in 50 mM Tris-HCl, pH 7.5 and 10% sucrose at 4° C. Protein concentration of the membrane suspension was determined using a Bio-Rad Bradford Protein Assay kit. Membranes were snap frozen and stored at −80° C. Chinese hamster ovary membranes expressing hDAT (CHO-DAT) were purchased from PerkinElmer and stored at −80° C.
(§3) Binding assays were performed in a 96-well assay plate in a total volume of 200 μl assay buffer (50 mM Tris-HCl, 120 mM NaCl, 5 mM KCl, pH 7.4) with 0.5, 1, and 3 μg membrane protein, for SERT, NET and DAT, respectively.
(§4) Stock solutions (10 mM in DMSO) of test compound were prepared and serial dilutions made using Dilution Buffer (50 mM Tris-HCl, 120 mM NaCl, 5 mM KCl, pH 7.4, 0.1% BSA, 400 μM ascorbic acid).
(§5) Following a 60 minute incubation at 22° C. (or a period sufficient to reach equilibrium), the membranes were harvested by rapid filtration over a 96-well UniFilter GF/B plate, pretreated with 0.3% polyethyleneimine, and washed 6 times with 300 μl wash buffer (50 mM Tris-HCl, 0.9% NaCl, pH 7.5 at 4° C.). Plates were dried overnight at room temperature, ˜45 μl of MicroScint™-20 (Perkin Elmer) added and bound radioactivity quantitated via liquid scintillation spectroscopy. Inhibition curves and saturation isotherms were analyzed using GraphPad Prism Software package (GraphPad Software, Inc., San Diego, Calif.). IC50 values were generated from concentration response curves using the Sigmoidal Dose Response (variable slope) algorithm in Prism GraphPad. Kd and Bmax values for the radioligand were generated from saturation isotherms using the Saturation Binding Global Fit algorithm in Prism GraphPad. pKi (negative decadic logarithm of Ki) values for test compounds were calculated from the best-fit IC50 values, and the Kd value of the radioligand, using the Cheng-Prusoff equation (Cheng & Prusoff (1973) Biochem. Pharmacol. 22(23):3099-3108): Ki=IC50/(1+[L]/Kd), where [L]=concentration radioligand.

SERT = SERT (Homo sapiens, UniProt P31645); test: hSERT radioligand binding assay (3H-citalopram); design: expressed in transfected cells; host or cells: HEK-293; conditions: hSERT membranes (HEK-293), 1.0 nM 3H-citalopram; for Ki: read-out: SERT pKi (converted)
Experimental: as §1, §2, §3, §4, §5

NET, sequence (P23975 whole entry): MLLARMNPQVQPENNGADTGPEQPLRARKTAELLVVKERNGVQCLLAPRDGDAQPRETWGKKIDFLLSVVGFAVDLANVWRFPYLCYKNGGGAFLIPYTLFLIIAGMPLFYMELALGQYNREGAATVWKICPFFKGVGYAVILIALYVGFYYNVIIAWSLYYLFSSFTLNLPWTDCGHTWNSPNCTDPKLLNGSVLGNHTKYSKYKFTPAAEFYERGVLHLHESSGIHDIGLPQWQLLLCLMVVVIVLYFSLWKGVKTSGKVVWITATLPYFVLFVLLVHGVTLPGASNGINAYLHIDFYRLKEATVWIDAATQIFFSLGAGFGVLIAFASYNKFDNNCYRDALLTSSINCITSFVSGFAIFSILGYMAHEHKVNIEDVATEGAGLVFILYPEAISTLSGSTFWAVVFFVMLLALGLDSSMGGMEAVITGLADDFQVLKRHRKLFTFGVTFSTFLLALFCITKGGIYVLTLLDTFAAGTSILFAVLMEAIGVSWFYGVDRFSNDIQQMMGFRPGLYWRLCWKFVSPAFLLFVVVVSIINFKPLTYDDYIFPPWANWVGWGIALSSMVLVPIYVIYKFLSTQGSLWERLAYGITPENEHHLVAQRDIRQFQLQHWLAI
SERT, sequence (P31645 whole entry): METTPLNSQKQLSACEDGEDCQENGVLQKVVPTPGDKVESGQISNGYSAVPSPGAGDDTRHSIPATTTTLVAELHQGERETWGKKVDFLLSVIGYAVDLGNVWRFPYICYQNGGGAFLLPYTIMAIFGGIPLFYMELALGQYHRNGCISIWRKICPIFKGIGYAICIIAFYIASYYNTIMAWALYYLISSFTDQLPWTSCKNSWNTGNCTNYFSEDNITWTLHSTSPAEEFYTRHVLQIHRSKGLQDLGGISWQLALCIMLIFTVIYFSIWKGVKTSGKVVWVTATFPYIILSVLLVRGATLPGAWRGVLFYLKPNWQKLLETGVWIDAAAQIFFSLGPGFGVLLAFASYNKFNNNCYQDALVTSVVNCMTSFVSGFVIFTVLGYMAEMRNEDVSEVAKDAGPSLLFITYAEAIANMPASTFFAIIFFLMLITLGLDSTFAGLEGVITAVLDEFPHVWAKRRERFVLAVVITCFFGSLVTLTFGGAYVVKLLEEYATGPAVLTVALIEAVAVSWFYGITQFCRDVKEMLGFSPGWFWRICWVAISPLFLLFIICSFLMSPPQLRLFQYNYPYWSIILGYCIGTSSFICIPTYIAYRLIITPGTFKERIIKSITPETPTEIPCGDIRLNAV

Compound | NET pKi (NET) | SERT pKi (SERT) | Ki (NET) [µM] | Ki (SERT) [µM]
Clc1cccc(O[C@@H](c2ncco2)[C@H]2CCNC2)c1Cl.O=C(O)C(F)(F)F [6-49] | ≧7.0 | ≧7.0 |  | 
Cc1c(Cl)cccc1O[C@@H](c1ncco1)[C@H]1CCNC1.O=C(O)C(F)(F)F [6-50] | ≧7.0 | ≧7.0 |  | 
COc1ccccc1O[C@@H](c1ncco1)[C@H]1CCNC1.O=C(O)C(F)(F)F [6-52] | ≧7.0 | ≧5.0 |  | 
CCc1cc(F)cc(F)c1O[C@@H](c1ncco1)[C@H]1CCNC1 [6-53] | ≧7.0 | ≧7.0 |  | 
Fc1cc(F)c(Cl)c(O[C@@H](c2cnccn2)[C@H]2CCNC2)c1Cl.O=C(O)C(F)(F)F [10-1] | ≧7.0 | ≧7.0 |  | 
Fc1cc(F)c(Cl)c(O[C@H](c2cnccn2)[C@H]2CCNC2)c1Cl [10-2] |  |  | ≤ 10 | ≤ 10
Fc1ccc(F)c(O[C@@H](c2cnccn2)[C@H]2CCNC2)c1Cl.O=C(O)C(F)(F)F [10-3] | ≧7.0 | ≧5.0 |  | 
Fc1ccc(F)c(O[C@H](c2cnccn2)[C@H]2CCNC2)c1Cl [10-4] |  |  | ≤ 10 | ≤ 0.1
Cc1cc(Cl)ccc1O[C@@H](c1cnccn1)[C@H]1CCNC1.O=C(O)C(F)(F)F [10-5] | ≧7.0 | ≧7.0 |  | 
Cc1cc(Cl)ccc1O[C@H](c1cnccn1)[C@H]1CCNC1 [10-6] |  |  | ≤ 10 | ≤ 0.1
COc1ccccc1O[C@@H](c1cnccn1)[C@H]1CCNC1.O=C(O)C(F)(F)F [10-7] | ≧7.0 | ≧5.0 |  | 
COc1ccccc1O[C@H](c1cnccn1)[C@H]1CCNC1 [10-8] |  |  | ≤ 10 | ≤ 10
Clc1cc(Cl)cc(O[C@H](c2cnccn2)[C@H]2CCNC2)c1 [10-10] |  |  | ≤ 10 | ≤ 0.1
Fc1ccc(F)c(O[C@@H](c2cncnc2)[C@H]2CCNC2)c1Cl.O=C(O)C(F)(F)F [12-1] | ≧7.0 | ≧5.0 |  | 
Fc1ccc(F)c(O[C@H](c2cncnc2)[C@H]2CCNC2)c1Cl [12-2] |  |  | ≤ 10 | ≤ 0.1
Cc1cc(Cl)ccc1O[C@@H](c1cncnc1)[C@H]1CCNC1.O=C(O)C(F)(F)F [12-3] | ≧7.0 | ≧7.0 |  | 
COc1ccccc1OC(c1cncnc1)C1CCNC1 (stereo not shown) [12-4] | ≧7.0 | ≧5.0 |  | 
Clc1cc(Cl)cc(O[C@@H](c2cncnc2)[C@H]2CCNC2)c1.O=C(O)C(F)(F)F [12-5] | ≧5.0 | ≧7.0 |  | 
Fc1cc(F)c(O[C@@H](c2ccccc2)[C@H]2CCNC2)nc1F.O=C(O)C(F)(F)F [14-1] | ≧5.0 | ≧7.0 |  | 
Cc1c(F)c(F)nc(O[C@@H](c2ccccc2)[C@H]2CCNC2)c1F.O=C(O)C(F)(F)F [14-4] | ≧5.0 | ≧7.0 |  | 
Fc1ccc(O[C@@H](c2ccccc2)[C@H]2CCNC2)nc1F.O=C(O)C(F)(F)F [14-5] | ≧7.0 | ≧5.0 |  | 
Fc1c(Cl)nc(O[C@@H](c2ccccc2)[C@H]2CCNC2)c(F)c1Cl.O=C(O)C(F)(F)F [14-6] | ≧7.0 | ≧7.0 |  | 

Compound | NET pKi (NET) | SERT pKi (SERT) | Ki (NET) [µM] | Ki (SERT) [µM]
Clc1cccc(O[C@@H](c2ccccc2)[C@H]2CCNC2)n1.O=C(O)C(F)(F)F [14-9] | ≧7.0 | ≧7.0 |  | 
Fc1cccc(O[C@@H](c2ccccc2)[C@H]2CCNC2)n1.O=C(O)C(F)(F)F [14-10] | ≧7.0 | ≧5.0 |  | 
Cc1cccc(O[C@@H](c2ccccc2)[C@H]2CCNC2)n1.O=C(O)C(F)(F)F [14-11] | ≧5.0 | ≧5.0 |  | 
Cc1nc(O[C@@H](c2ccccc2)[C@H]2CCNC2)c(Br)cc1Br.O=C(O)C(F)(F)F [14-12] | ≧7.0 | ≧7.0 |  | 
Brc1cnc(O[C@@H](c2ccccc2)[C@H]2CCNC2)c(Br)c1.O=C(O)C(F)(F)F [14-13] | ≧7.0 | ≧7.0 |  | 
Clc1cnc(OC(c2ccccc2)C2CCNC2)c(Cl)c1 (stereo not shown) [14-14] | ≧7.0 | ≧7.0 |  | 
Fc1cnc(O[C@H](c2ccccc2)[C@@H]2CCNC2)c(F)c1.O=C(O)C(F)(F)F [14-16] | ≧7.0 | ≧7.0 |  | 
Fc1cnc(O[C@@H](c2ccccc2)[C@H]2CCNC2)c(F)c1.O=C(O)C(F)(F)F [14-17] | ≧7.0 | ≧5.0 |  | 
Fc1cnc(O[C@@H](c2ccccc2)[C@H]2CCNC2)c(F)c1C(F)(F)F.O=C(O)C(F)(F)F [14-18] | ≧7.0 | ≧7.0 |  | 
Brc1ccc(O[C@@H](c2ccccc2)[C@H]2CCNC2)nc1.O=C(O)C(F)(F)F [14-20] | ≧7.0 | ≧7.0 |  | 
Cc1cc(Br)cnc1O[C@@H](c1ccccc1)[C@H]1CCNC1.O=C(O)C(F)(F)F [14-21] | ≧7.0 | ≧7.0 |  | 
FC(F)(F)c1ccc(O[C@@H](c2ccccc2)[C@H]2CCNC2)nc1.O=C(O)C(F)(F)F [14-23] | ≧5.0 | ≧7.0 |  | 
FC(F)(F)c1ccc(O[C@H](c2ccccc2)[C@@H]2CCNC2)nc1.O=C(O)C(F)(F)F [14-24] | ≧5.0 | ≧7.0 |  | 
FC(F)(F)c1cnc(O[C@@H](c2ccccc2)[C@H]2CCNC2)c(Cl)c1.O=C(O)C(F)(F)F [14-25] | ≧5.0 | ≧7.0 |  | 
Clc1ccc(O[C@H](c2ccccc2)[C@@H]2CCNC2)nc1.O=C(O)C(F)(F)F [14-27] | ≧7.0 | ≧7.0 |  | 
Fc1cc(Cl)cnc1O[C@@H](c1ccccc1)[C@H]1CCNC1.O=C(O)C(F)(F)F [14-28] | ≧5.0 | ≧7.0 |  | 
Fc1ccc(O[C@@H](c2ccccc2)[C@H]2CCNC2)nc1.O=C(O)C(F)(F)F [14-29] | ≧7.0 | ≧7.0 |  | 
Cc1ccc(O[C@@H](c2ccccc2)[C@H]2CCNC2)nc1.O=C(O)C(F)(F)F [14-30] | ≧7.0 | ≧5.0 |  | 
Cc1cnc(O[C@@H](c2ccccc2)[C@H]2CCNC2)c(Br)c1.O=C(O)C(F)(F)F [14-31] | ≧7.0 | ≧7.0 |  | 
Cc1ccnc(OC(c2ccccc2)C2CCNC2)c1 (stereo not shown) [14-32] | ≧7.0 | ≧7.0 |  | 
FC(F)(F)c1cccnc1O[C@H](c1ccccc1)[C@@H]1CCNC1.O=C(O)C(F)(F)F [14-33] | ≧5.0 | ≧5.0 |  | 
FC(F)(F)c1cccnc1O[C@@H](c1ccccc1)[C@H]1CCNC1.O=C(O)C(F)(F)F [14-34] | ≧5.0 | ≧7.0 |  | 
